{"source": "patent US4401604A", "about": "“Process for preparing thiosulfenamide derivatives of N-phosphonomethylglycine triesters” (Monsanto Company, priority 1981, dated 1983)", "test_in_all_cases": "Post-emergence herbicidal activity, greenhouse", "type_in_all_cases": "in vivo", "details_in_all_cases": "Table I, 4 WAT", "key": {"Barnyardgrass": {"tested_on": "Barnyardgrass", "from_the_text": "(§1) A good grade of top soil is placed in aluminum pans having holes in the bottom and compacted to a depth of 0.95 to 1.27 cm. from the top of the pan. A predetermined number of seeds of each of several dicotyledonous and monocotyledonous annual plant species and/or vegetative propagules for the perennial plant species are placed on the soil and pressed into the soil surface. The seeds and/or vegetative propagules are covered with soil and leveled. The pans are then placed on a sand bench in the greenhouse and watered from below as needed. After the plants reach the desired age (two to three weeks), each pan except for the control pans is removed individually to a spraying chamber and sprayed by means of an atomizer operating at a positive air pressure of approximately 1.46 kg/cm^2 absolute. The atomizer contains 6 ml. of a solution or suspension of the chemical. In that 6 ml., is an amount of a cyclohexanone emulsifying agent mixture to give a spray solution or suspension which contains about 0.4% by weight of the emulsifier. The spray solution or suspension contains a sufficient amount of the candidate chemical in order to give application rates corresponding to those set forth in the tables. The spray solution is prepared by taking an aliquot of a 1.0% by weight stock solution or suspension of the candidate chemical in an organic solvent such as acetone or tetrahydrofuran or in water. The emulsifying agent employed is a mixture comprising 35 weight percent butylamine dodecylbenzene sulfonate and 65 weight percent of a tall oil ethylene oxide condensate having about 11 moles of ethylene oxide per mole of tall oil. The pans are returned to the greenhouse and watered as before and the injury to the plants as compared to the control is observed at approximately two and four weeks as indicated in the tables under WAT and the results recorded. In some instances, the two-week observations are omitted.\n(§2) The post-emergence herbicidal activity index used in Table I is as follows:\n(§3) The plant species utilized in these tests are identified by letter in accordance with the following legend: […]"}, "Cocklebur": {"tested_on": "Cocklebur", "from_the_text": "as §1, §2, §3"}, "Downy Brome": {"tested_on": "Downy Brome", "from_the_text": "as §1, §2, §3"}, "Johnsongrass": {"tested_on": "Johnsongrass", "from_the_text": "as §1, §2, §3"}, "Lambsquarters": {"tested_on": "Lambsquarters", "from_the_text": "as §1, §2, §3"}, "Morningglory": {"tested_on": "Morningglory", "from_the_text": "as §1, §2, §3"}, "Quackgrass": {"tested_on": "Quackgrass", "from_the_text": "as §1, §2, §3"}, "Velvetleaf": {"tested_on": "Velvetleaf", "from_the_text": "as §1, §2, §3"}, "Yellow Nutsedge": {"tested_on": "Yellow Nutsedge", "from_the_text": "as §1, §2, §3"}}, "data": [{"molecule": "CCOC(=O)CN(CP(=O)(Oc1ccc(Cl)c(C)c1)Oc1ccc(Cl)c(C)c1)SSc1ccc(OC)cc1", "note": "[VII]", "values": [{"measurement": "post-emergence herbicidal activity index", "setting": "Barnyardgrass; 5.6 kg/h", "result": "3 (75-99% control)"}, {"measurement": "post-emergence herbicidal activity index", "setting": "Barnyardgrass; 11.2 kg/h", "result": "3 (75-99% control)"}, {"measurement": "post-emergence herbicidal activity index", "setting": "Cocklebur; 5.6 kg/h", "result": "1 (25-49% control)"}, {"measurement": "post-emergence herbicidal activity index", "setting": "Cocklebur; 11.2 kg/h", "result": "2 (50-74% control)"}, {"measurement": "post-emergence herbicidal activity index", "setting": "Downy Brome; 5.6 kg/h", "result": "2 (50-74% control)"}, {"measurement": "post-emergence herbicidal activity index", "setting": "Downy Brome; 11.2 kg/h", "result": "2 (50-74% control)"}, {"measurement": "post-emergence herbicidal activity index", "setting": "Johnsongrass; 5.6 kg/h", "result": "3 (75-99% control)"}, {"measurement": "post-emergence herbicidal activity index", "setting": "Johnsongrass; 11.2 kg/h", "result": "2 (50-74% control)"}, {"measurement": "post-emergence herbicidal activity index", "setting": "Lambsquarters; 5.6 kg/h", "result": "2 (50-74% control)"}, {"measurement": "post-emergence herbicidal activity index", "setting": "Lambsquarters; 11.2 kg/h", "result": "2 (50-74% control)"}, {"measurement": "post-emergence herbicidal activity index", "setting": "Morningglory; 5.6 kg/h", "result": "1 (25-49% control)"}, {"measurement": "post-emergence herbicidal activity index", "setting": "Morningglory; 11.2 kg/h", "result": "1 (25-49% control)"}, {"measurement": "post-emergence herbicidal activity index", "setting": "Quackgrass; 5.6 kg/h", "result": "1 (25-49% control)"}, {"measurement": "post-emergence herbicidal activity index", "setting": "Quackgrass; 11.2 kg/h", "result": "1 (25-49% control)"}, {"measurement": "post-emergence herbicidal activity index", "setting": "Velvetleaf; 5.6 kg/h", "result": "1 (25-49% control)"}, {"measurement": "post-emergence herbicidal activity index", "setting": "Velvetleaf; 11.2 kg/h", "result": "1 (25-49% control)"}, {"measurement": "post-emergence herbicidal activity index", "setting": "Yellow Nutsedge; 5.6 kg/h", "result": "2 (50-74% control)"}, {"measurement": "post-emergence herbicidal activity index", "setting": "Yellow Nutsedge; 11.2 kg/h", "result": "1 (25-49% control)"}]}]}
